Results: patent publication US8772490B2, “Optically active diazabicyclooctane derivatives and process for preparing the same” (Meiji Seika Pharma Co., Ltd., priority 2010, dated 2014)

Legend:
[1] = test system: P. aeruginosa PAO1 variant, which constitutively expresses AmpC; experiment: Combinatorial antibacterial activity: MIC of piperacillin (PIPC) with test compound, agar plate dilution; type: cell-based, Pseudomonas aeruginosa; conditions: for MIC (antimicrobial activity of Piperacillin (PIPC) in combination with the compound): Table 7, PIPC in combination with 4 μg/mL of the compound
Protocol: The biological activity of the above-mentioned compounds represented by formulae (H) and (s) can be measured as follows. Specifically, an enzyme inhibitory activity (IC50 value) against AmpC enzyme which is a class C β-lactamase was determined using nitrocephin as a substrate to check whether or not the compounds had the inhibitory activity and compare the activities of them. Further, using constitutive AmpC producing Pseudomonas aeruginosa, a combined antimicrobial activity (MIC) was measured when using Piperacillin (PIPC) as an antibiotic and the compound of formula (H) or (s) in combination to check whether or not the antimicrobial activity of PIPC could be restored.
The combinatorial effect of the test compound with a β-lactam agent against bacteria was evaluated using AmpC constitutive expression strain selected from P. aeruginosa PAO1 through agent exposure. Using piperacillin (PIPC, Sigma-Aldrich) as a β-lactam agent, measurement was conducted by agar plate dilution process in which minimal inhibitory concentration (MIC) of PIPC is based on Clinical and Laboratory Standards Institute (CLSI process). That is, an agara plate containing 4 μg/mL (final concentration) of test compound and PIPC at each concentration in Mueller-Hinton agar (Becton, Dickinson and Company) was made, and bacteria cultured overnight in cation-adjusted Muller-Hinton broth (Becton, Dickinson and Company) were adjusted in the same medium so as to have 10^4 CFU/spot and inoculated on a plate containing an agent. This plate containing an agent was cultured overnight at 35° C., and the minimum agent concentration in which no growth of bacteria is observed was determined to be MIC.

AmpC β-lactamase = AmpC β-lactamase (Pseudomonas aeruginosa (strain ATCC 15692 / DSM 22644 / CIP 104116 / JCM 14847 / LMG 12228 / 1C / PRS 101 / PAO1), UniProt P24735); type: biochemical
Protocol: The biological activity of the above-mentioned compounds represented by formulae (H) and (s) can be measured as follows. […] Further, using constitutive AmpC producing Pseudomonas aeruginosa, a combined antimicrobial activity (MIC) was measured when using Piperacillin (PIPC) as an antibiotic and the compound of formula (H) or (s) in combination to check whether or not the antimicrobial activity of PIPC could be restored.
Using P. aeruginosa PAO1 genome as a template, a DNA for encoding an AmpC β-lactamase domain excluding a signal peptide was amplified with PCR. This PCR product was incorporated into pET-28b(+)vector (Merck), introduced into E. coli BL21 (Merck), and, under induction of 1 mM isopropyl-β-D-(−)-thiogalactopyranoside (Nacalai Tesque), cultured overnight at 20° C. to express AmpC. After the bacterial cell was collected. AmpC was purified from the cell extract obtained by ultrasonic treatment, using CM Sepharose Fast Flow (GE Healthcare) and HiTrap Heparin HP (GE Healthcare) at 4° C.

Chain of AmpC β-lactamase (P24735 27-397): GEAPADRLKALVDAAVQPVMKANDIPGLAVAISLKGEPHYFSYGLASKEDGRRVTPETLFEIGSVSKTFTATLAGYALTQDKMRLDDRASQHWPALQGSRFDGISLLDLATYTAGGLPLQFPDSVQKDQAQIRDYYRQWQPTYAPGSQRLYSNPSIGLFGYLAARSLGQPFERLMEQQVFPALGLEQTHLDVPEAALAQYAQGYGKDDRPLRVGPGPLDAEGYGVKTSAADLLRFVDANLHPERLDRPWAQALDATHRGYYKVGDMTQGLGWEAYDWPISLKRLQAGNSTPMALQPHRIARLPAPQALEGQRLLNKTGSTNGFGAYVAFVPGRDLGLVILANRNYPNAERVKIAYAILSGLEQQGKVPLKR

## NC(=O)[C@@H]1CC[C@@H]2CN1C(=O)N2OS(=O)(=O)[O-].[Na+] [Example 23, (2S,5R)-1,6-Diazabicyclo[3.2.1]octane-2-carboxamide, 7-oxo-6-(sulfoxy)-monosodium salt]
[1]
  effect of the compound in combination with an antibiotic (in words): exhibited the activities
  MIC (antimicrobial activity of Piperacillin (PIPC) in combination with the compound): 4 µg/mL
AmpC β-lactamase
  β-lactamase enzyme inhibitory activity (in words): exhibited the activities

## NC(=O)[C@H]1CC[C@H]2CN1C(=O)N2OS(=O)(=O)[O-].[Na+] [Example 24, (2R,5S)-1,6-Diazabicyclo[3.2.1]octane-2-carboxamide, 7-oxo-6-(sulfoxy)-monosodium salt]
[1]
  effect of the compound in combination with an antibiotic (in words): exhibited no activity
  MIC (antimicrobial activity of Piperacillin (PIPC) in combination with the compound): 64 µg/mL
AmpC β-lactamase
  β-lactamase enzyme inhibitory activity (in words): exhibited no activity

## C[C@]1(Cn2ccnn2)[C@H](C(=O)[O-])N2C(=O)C[C@H]2S1(=O)=O.[Na+] [TAZ, Tazobactam, reference compound]
[1]
  MIC (antimicrobial activity of Piperacillin (PIPC) in combination with the compound): 64 µg/mL
